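Exposure lasted 48 hours, with cells grown in 96-well plates and compounds tested at five concentrations. Definition used: TGI = concentration required for complete inhibition of growth.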 Where a SMILES comes first, the peptide text is derived from it. [ ]: non-standard residue; d: D form. The star is where a group is joined. ξ: configuration not given here. ξPhe(4-NO2) = NC(Cc1ccc([N+](=O)[O-])cc1)C(=O)O; Boc = CC(C)(C)OC(=O)*; OBn = c1ccc(CO*)cc1
Legend:
Experiment in all cases: NCI-60 cell line screen, 48 h
K-562 leukemia = test system: K-562 leukemia
HT29 colon = test system: HT29 colon
UACC-62 melanoma = test system: UACC-62 melanoma
MDA-MB-435 = test system: MDA-MB-435
IGROV1 ovarian = test system: IGROV1 ovarian
OVCAR-8 ovarian = test system: OVCAR-8 ovarian
MALME-3M melanoma = test system: MALME-3M melanoma
KM12 colon = test system: KM12 colon
SK-MEL-28 melanoma = test system: SK-MEL-28 melanoma
HOP-62 NSCLC = test system: HOP-62 NSCLC
SK-OV-3 ovarian = test system: SK-OV-3 ovarian
SF-295 CNS = test system: SF-295 CNS
MCF7 breast = test system: MCF7 breast
A549 NSCLC = test system: A549 NSCLC
HOP-92 NSCLC = test system: HOP-92 NSCLC

| Structure (SMILES) | TGI (K-562 leukemia) [µM] | TGI (HT29 colon) [µM] | TGI (UACC-62 melanoma) [µM] | TGI (MDA-MB-435) [µM] | TGI (IGROV1 ovarian) [µM] | TGI (OVCAR-8 ovarian) [µM] | TGI (MALME-3M melanoma) [µM] | TGI (KM12 colon) [µM] | TGI (SK-MEL-28 melanoma) [µM] | TGI (HOP-62 NSCLC) [µM] | TGI (SK-OV-3 ovarian) [µM] | TGI (SF-295 CNS) [µM] | TGI (MCF7 breast) [µM] | TGI (A549 NSCLC) [µM] | TGI (HOP-92 NSCLC) [µM] |
| --- | --- | --- | --- | --- | --- | --- | --- | --- | --- | --- | --- | --- | --- | --- | --- |
| C/C(=N\NS(=O)(=O)c1ccc(C)cc1)C(CN(C)C)C(c1ccccc1)c1c(O)c2ccccc2oc1=O (centres undefined) | > 100 | > 100 | > 100 | > 100 | > 100 | > 100 | > 100 | > 100 | > 100 | > 100 | > 100 | > 100 | > 100 | > 100 | > 100 |
| CC(C)C[C@H](NC(=O)CCc1ccccc1)B(O)O | 62.7 | 15.4 | 72.9 | 7.79 | > 100 | 46.2 | 32.9 | 32.8 | 32.4 | 46.9 | – | 34.5 | > 100 | > 100 | 65.1 |
| C[C@]12CC(c3ccccc3O1)C(C#N)C(=O)N2 (some centres undefined) | > 100 | > 100 | > 100 | > 100 | > 100 | > 100 | > 100 | > 100 | > 100 | > 100 | > 100 | – | > 100 | > 100 | > 100 |
| CCCC(=O)N/S(=N/S(=O)(=O)c1ccc(Cl)cc1)C(Cl)(Cl)Cl (centres undefined) | > 100 | > 100 | > 100 | > 100 | > 100 | > 100 | > 100 | > 100 | > 100 | > 100 | > 100 | > 100 | > 100 | > 100 | – |
| Nc1nc(Cl)cc(NCC2(CO)CCC2)n1 | > 100 | > 100 | > 100 | > 100 | > 100 | > 100 | > 100 | > 100 | > 100 | > 100 | > 100 | > 100 | > 100 | > 100 | > 100 |
| Cc1[nH]n(-c2nc3c(c(=O)[nH]2)CCC3)c(=O)c1CCO | > 100 | > 100 | > 100 | > 100 | > 100 | > 100 | > 100 | > 100 | > 100 | > 100 | > 100 | > 100 | > 100 | > 100 | – |
| C=CCNC(=O)/C(Cc1cc(Br)c(OC)c(Br)c1O)=N\O | > 100 | 35 | 34.8 | 2.69 | 47.8 | 20.9 | 17.3 | 19.8 | 31 | 22.9 | – | 21.5 | > 100 | 53.4 | 24.1 |
| COc1ccc(-c2c3c(n(C4OC(CO)C(O)C(O)C4O)c(=S)c2C#N)CC(C)(C)CC3=O)cc1 (centres undefined) | > 100 | > 100 | > 100 | > 100 | > 100 | > 100 | > 100 | > 100 | > 100 | > 100 | – | > 100 | > 100 | > 100 | > 100 |
| C=C(C)[C@@H]1CC[C@@H](C)[C@](O)([C@@H]2C[C@@H]([C@H](COC(=O)c3ccccc3)OC(=O)c3ccccc3)OC2=O)C1 | > 100 | > 100 | > 100 | > 100 | > 100 | > 100 | > 100 | > 100 | > 100 | > 100 | > 100 | > 100 | > 100 | > 100 | – |
| Cc1cnc2[nH]c(-c3ccc(F)cc3)cc(=O)c2c1 | 47 | > 100 | > 100 | 12.6 | > 100 | > 100 | > 100 | > 100 | > 100 | > 83.1 | > 68 | 99 | > 100 | > 100 | > 100 |
| COc1cc2c(cc1OC)C1C(O)C(OC)C=C3CC[N+](C)(C2)C31 (centres undefined) | – | > 100 | > 100 | > 100 | > 100 | > 100 | > 100 | > 100 | > 100 | > 100 | > 100 | > 100 | > 100 | > 100 | > 100 |
| CS(=O)(=O)c1[nH]nc2[nH]c(=O)[nH]c(=O)c12 | – | > 10 | > 10 | > 10 | > 10 | > 10 | > 10 | > 10 | > 10 | > 10 | > 10 | > 10 | > 10 | > 10 | > 10 |
| CC(C)(C)OC(=O)NC(Cc1ccc([N+](=O)[O-])cc1)C(=O)NCC(=O)OCc1ccccc1 (centres undefined) (Boc-[ξPhe(4-NO2)]-Gly-OBn) | 52.3 | 61.3 | 32 | 33.2 | > 100 | 52.4 | 61.9 | 59 | 47.3 | 36.7 | 64.8 | 40.2 | > 100 | > 100 | 65.9 |
| c1ccc2[nH]c3[nH]c4[nH]c5ccccc5[nH]c4[nH]c3[nH]c2c1 | > 100 | > 100 | > 100 | > 100 | > 100 | > 100 | > 100 | > 100 | > 100 | > 100 | > 100 | > 100 | > 100 | > 100 | – |
| COC(=O)C(/C(=N/N)C(=O)Nc1cc(Cl)c(Cl)cc1Cl)c1nc2ccc(Cl)cc2[nH]c1=O (centres undefined) | > 100 | > 100 | > 100 | > 100 | > 100 | > 100 | > 100 | > 100 | > 100 | > 100 | > 100 | > 100 | > 100 | > 100 | > 100 |
| CC(=O)OCC1OC(n2c3c(c(-c4ccc(Cl)cc4)c(C#N)c2=S)C(=O)CC(C)(C)C3)C(OC(C)=O)C(OC(C)=O)C1OC(C)=O (centres undefined) | > 100 | > 72.2 | 27.8 | > 69.6 | > 100 | 51.8 | > 100 | > 77.4 | 65.9 | > 100 | – | > 100 | > 95.3 | > 100 | > 100 |
| OCCSCc1cc2c(O)c(c1)Cc1cc(CSCCO)cc(c1O)Cc1cc(CSCCO)cc(c1O)Cc1cc(CSCCO)cc(c1O)C2 | > 100 | 7.4 | – | 9.04 | 10.9 | 17.6 | 5.88 | 17.1 | 13.1 | 15.6 | 31.7 | 16.7 | 14.5 | 20.4 | 15.2 |
| CCCCCC(=O)OCC(=O)[C@H]1[C@H](C)C[C@H]2[C@@H]3C[C@H](F)C4=C/C(=N/OC(=O)c5cccc6c(=O)c7ccccc7[nH]c56)C=C[C@]4(C)[C@H]3[C@@H](O)C[C@@]21C | > 100 | 57.8 | 32 | 55.3 | > 100 | 65.9 | 33.2 | 27.3 | – | > 100 | > 100 | > 100 | 54.9 | > 100 | > 100 |
| CN(C)c1ncnc2c1ncn2C1C=CC(COS(N)(=O)=O)C1 (centres undefined) | > 100 | > 100 | > 100 | > 100 | > 100 | > 100 | > 100 | > 100 | > 100 | > 100 | > 100 | > 100 | > 100 | > 100 | > 100 |
| CC1(C)OC(=O)C(C)(C)OC1=O | > 100 | > 100 | > 100 | > 100 | > 100 | > 100 | > 100 | > 100 | > 100 | > 100 | > 100 | > 100 | > 100 | > 100 | > 100 |
| NC(C(F)(F)F)(C(F)(F)F)P(=O)(c1ccccc1)c1ccccc1 | > 100 | > 100 | > 100 | > 100 | > 100 | > 100 | > 100 | > 100 | > 100 | > 100 | > 100 | > 100 | > 100 | > 100 | > 100 |
| Cn1cc2c(=O)n3ncn(-c4ccc(Br)cc4)c3nc2n1 | > 100 | > 100 | > 100 | > 100 | > 100 | > 100 | > 100 | > 100 | > 100 | – | > 100 | > 100 | > 100 | > 100 | > 100 |
| CC1=NN2C(=O)CC(=O)N=C2S1 | > 100 | > 100 | > 100 | > 100 | > 100 | > 100 | > 100 | > 100 | > 100 | > 100 | > 100 | > 100 | > 100 | > 100 | > 100 |
| COc1cc(C)cc2c1C(=O)C(Br)=CC2=O | – | 35 | 23.3 | 5.68 | 31.7 | 15.2 | 4.73 | 28.8 | 33.3 | 32.5 | 33.8 | 30 | 21.6 | 43.4 | 5.41 |
| CC1(C)[C@@H]2C[C@H]1C(Cc1ccc(C[C@H]3c4cc(-c5ccccn5)ncc4[C@H]4C[C@@H]3C4(C)C)cc1)c1cc(-c3ccccn3)ncc12 (some centres undefined) | > 100 | > 100 | 5.68 | 23.3 | > 100 | 15.8 | 76.6 | 38.4 | 79.7 | 11 | > 100 | > 100 | > 100 | 87.9 | – |
| C[C@H]1C(OCCOC2O[C@@H]3O[C@@]4(C)CC[C@H]5[C@H](C)CCC([C@H]2C)[C@@]35O4)O[C@@H]2O[C@@]3(C)CC[C@H]4[C@H](C)CCC1[C@@]24O3 (some centres undefined) | > 100 | > 100 | > 100 | > 100 | 90.6 | > 100 | 41.5 | > 100 | > 100 | > 100 | > 100 | – | > 100 | > 100 | > 100 |
| CO[C@@](c1ccccc1)(c1nc(C#N)c(N)o1)C(F)(F)F | > 100 | – | > 100 | > 100 | > 100 | > 100 | > 100 | > 100 | > 100 | > 100 | > 100 | > 100 | > 100 | > 100 | > 100 |
| CC1=CC2(O)OC3(CC2=C(C)C)C(C)CCC13 (centres undefined) | > 100 | > 100 | > 100 | > 100 | > 100 | > 100 | > 100 | > 100 | – | > 100 | > 100 | > 100 | > 100 | > 100 | > 100 |
| Cn1c2ccccc2c(=O)c2c(O)cc3c(c21)C=CC1(CCCC1)O3 | – | > 100 | > 100 | > 100 | > 100 | > 100 | > 100 | > 100 | > 100 | > 100 | > 100 | > 100 | > 100 | > 100 | > 100 |
| NC1=CC(C(=O)c2ccncc2)c2nc3ccccc3nc21 (centres undefined) | – | > 100 | > 100 | > 100 | > 100 | > 100 | > 100 | > 100 | > 100 | > 100 | > 100 | > 100 | > 100 | > 100 | > 100 |
